This is an account of results in patent US11319299B2, “Substituted carboxamides as inhibitors of WDR5 protein-protein binding” (PROPELLON THERAPEUTICS INC., priority 2016, dated 2022).

The target in this assay is WDR5 (Homo sapiens (Human), UniProt P61964). The experiment in a line: Surface Plasmon Resonance (SPR) assay, KD and residence time. Format: binding. The settings on record: surface plasmon resonance (SPR) assay; read-out: WDR5 binding affinity (KD).
For the compound `C[C@@H]1CN(c2cc(F)c(-c3ccnc(OCC4CCC4)c3)cc2NC(=O)c2c[nH]c(=O)cc2C(F)(F)F)C[C@H](C)N1C` [Example 292, N-[5-[2-(cyclobutylmethoxy)pyridin-4-yl]-4-fluoro-2-[(3R,5S)-3,4,5-trimethylpiperazin-1-yl]phenyl]-6-oxo-4-(trifluoromethyl)-1H-pyridine-3-carboxamide], the Kd (commonly the constant that tells how readily two partners part at equilibrium) came to 4.32 nM.

Regarding `C[C@@H]1CN(c2cc(F)c(-c3ccnc(OCC(C)(C)C)c3)cc2NC(=O)c2c[nH]c(=O)cc2C(F)(F)F)C[C@H](C)N1C` [Example 293, N-[5-[2-(2,2-dimethylpropoxy)pyridin-4-yl]-4-fluoro-2-[(3R,5S)-3,4,5-trimethylpiperazin-1-yl]phenyl]-6-oxo-4-(trifluoromethyl)-1H-pyridine-3-carboxamide], the Kd amounted to 3 nM. The figure for `CCN(CC)c1ncc(-c2cc(NC(=O)c3c[nH]c(=O)cc3C(F)(F)F)c(N3C[C@@H](C)N(C)[C@@H](C)C3)cc2F)cn1` [Example 294, N-[5-[2-(diethylamino)pyrimidin-5-yl]-4-fluoro-2-[(3R,5S)-3,4,5-trimethylpiperazin-1-yl]phenyl]-6-oxo-4-(trifluoromethyl)-1H-pyridine-3-carboxamide] is 2.24 nM; for `C[C@@H]1CN(c2cc(F)c(-c3cnc(N4CCOCC4)nc3)cc2NC(=O)c2cccc(F)c2C(F)(F)F)C[C@H](C)N1C` [Example 295, 3-fluoro-N-[4-fluoro-5-(2-morpholin-4-ylpyrimidin-5-yl)-2-[(3R,5S)-3,4,5-trimethylpiperazin-1-yl]phenyl]-2-(trifluoromethyl)benzamide] it is 11.1 nM. As for `C[C@@H]1CN(c2cc(F)c(-c3cnc(N4CCOCC4)nc3)cc2NC(=O)c2cc(F)c(F)c(F)c2)C[C@H](C)N1C` [Example 296, 3,4,5-trifluoro-N-[4-fluoro-5-(2-morpholin-4-ylpyrimidin-5-yl)-2-[(3R,5S)-3,4,5-trimethylpiperazin-1-yl]phenyl]benzamide], the dissociation constant Kd turned out to be 21.2 nM. The figure for `C[C@@H]1CN(c2cc(F)c(-c3cnc(N4CCOCC4)nc3)cc2NC(=O)c2c(F)cccc2C(F)(F)F)C[C@H](C)N1C` [Example 297, 2-fluoro-N-[4-fluoro-5-(2-morpholin-4-ylpyrimidin-5-yl)-2-[(3R,5S)-3,4,5-trimethylpiperazin-1-yl]phenyl]-6-(trifluoromethyl)benzamide] is 22.9 nM; for `CCCN(C)C1CCN(c2cc(F)c(-c3cnc(N4CCOCC4)nc3)cc2NC(=O)c2c[nH]c(=O)cc2C(F)(F)F)C1` (centres unmarked) [Example 303, N-[4-fluoro-2-[3-[methyl(propyl)amino]pyrrolidin-1-yl]-5-(2-morpholin-4-ylpyrimidin-5-yl)phenyl]-6-oxo-4-(trifluoromethyl)-1H-pyridine-3-carboxamide] it is 1.68 nM. The figure for `C[C@@H]1CN(c2cc(F)c(C3=CCN(C(=O)CN(C)C)CC3)cc2NC(=O)c2c[nH]c(=O)cc2C(F)(F)F)C[C@H](C)N1C` [Example 305, N-[5-[1-[2-(dimethylamino)acetyl]-3,6-dihydro-2H-pyridin-4-yl]-4-fluoro-2-[(3R,5S)-3,4,5-trimethylpiperazin-1-yl]phenyl]-6-oxo-4-(trifluoromethyl)-1H-pyridine-3-carboxamide] is 2.61 nM; for `C[C@@H]1CN(c2cc(F)c(-c3cnc(N4CCN(C(=O)CCC(=O)O)CC4)nc3)cc2NC(=O)c2c[nH]c(=O)cc2C(F)(F)F)C[C@H](C)N1C` [Example 306, 4-[4-[5-[2-fluoro-5-[[6-oxo-4-(trifluoromethyl)-1H-pyridine-3-carbonyl]amino]-4-[(3R,5S)-3,4,5-trimethylpiperazin-1-yl]phenyl]pyrimidin-2-yl]piperazin-1-yl]-4-oxobutanoic acid] it is 0.789 nM. For `C[C@@H]1CN(c2cc(F)c(C3=CCN(C(=O)OC(C)(C)C)CC3)cc2NC(=O)c2cn(C)c(=O)cc2C(F)(F)F)C[C@H](C)N1C` [Example 313, tert-butyl 4-[2-fluoro-5-[[-methyl-6-oxo-4-(trifluoromethyl)pyridine-3-carbonyl]amino]-4-[(3R,5S)-3,4,5-trimethylpiperazin-1-yl]phenyl]-3,6-dihydro-2H-pyridine-1-carboxylate] the value was 3.1 nM. On to `C[C@@H]1CN(c2cc(F)c(-c3ccc(OCC4CC4)nc3)cc2NC(=O)c2c[nH]c(=O)cc2C(F)F)C[C@H](C)N1C` [Example 314, N-[5-[6-(cyclopropylmethoxy)pyridin-3-yl]-4-fluoro-2-[(3R,5S)-3,4,5-trimethylpiperazin-1-yl]phenyl]-4-(difluoromethyl)-6-oxo-1H-pyridine-3-carboxamide], for which the Kd was 1.67 nM. The figure for `CCn1cc(C(=O)Nc2cc(-c3cnc(N4CCOCC4)nc3)c(F)cc2N2C[C@@H](C)N(C)[C@@H](C)C2)c(C(F)(F)F)cc1=O` [Example 315, 1-ethyl-N-[4-fluoro-5-(2-morpholin-4-ylpyrimidin-5-yl)-2-[(3R,5S)-3,4,5-trimethylpiperazin-1-yl]phenyl]-6-oxo-4-(trifluoromethyl)pyridine-3-carboxamide] is 8.49 nM; for `C[C@@H]1CN(c2cc(F)c(-c3cnc(N4CC(C)(C)OC(C)(C)C4)nc3)cc2NC(=O)c2c[nH]c(=O)cc2C(F)(F)F)C[C@H](C)N1C` [Example 320, N-[4-fluoro-2-[(3R,5S)-3,4,5-trimethylpiperazin-1-yl]-5-[2-(2,2,6,6-tetramethylmorpholin-4-yl)pyrimidin-5-yl]phenyl]-6-oxo-4-(trifluoromethyl)-1H-pyridine-3-carboxamide] it is 0.722 nM; for `C[C@@H]1CN(c2cc(F)c(-c3cnc(N4CCOCC4)nc3)cc2NC(=O)c2cc(C(F)(F)F)[nH]n2)C[C@H](C)N1C` [Example 321, N-[4-fluoro-5-(2-morpholin-4-ylpyrimidin-5-yl)-2-[(3R,5S)-3,4,5-trimethylpiperazin-1-yl]phenyl]-5-(trifluoromethyl)-1H-pyrazole-3-carboxamide] it is 63.1 nM. With `C[C@@H]1CN(c2cc(F)c(C3=CCCN(C(=O)OC(C)(C)C)C3)cc2NC(=O)c2c[nH]c(=O)cc2C(F)(F)F)C[C@H](C)N1C` [Example 322, tert-butyl 5-[2-fluoro-5-[[6-oxo-4-(trifluoromethyl)-1H-pyridine-3-carbonyl]amino]-4-[(3R,5S)-3,4,5-trimethylpiperazin-1-yl]phenyl]-3,6-dihydro-2H-pyridine-1-carboxylate], the Kd was determined as 1.36 nM. For `C[C@@H]1CN(c2cc(F)c(C3=CCN(C(=O)OC(C)(C)C)C3)cc2NC(=O)c2c[nH]c(=O)cc2C(F)(F)F)C[C@H](C)N1C` [Example 323, tert-butyl 3-[2-fluoro-5-[[6-oxo-4-(trifluoromethyl)-1H-pyridine-3-carbonyl]amino]-4-[(3R,5S)-3,4,5-trimethylpiperazin-1-yl]phenyl]-2,5-dihydropyrrole-1-carboxylate] the value was 2.48 nM; for `C[C@@H]1CN(c2cc(F)c(C3=CCCN(C(=O)OC(C)(C)C)C3)cc2NC(=O)c2cn(C)c(=O)cc2C(F)(F)F)C[C@H](C)N1C` [Example 325, tert-butyl 5-[2-fluoro-5-[[-methyl-6-oxo-4-(trifluoromethyl)pyridine-3-carbonyl]amino]-4-[(3R,5S)-3,4,5-trimethylpiperazin-1-yl]phenyl]-3,6-dihydro-2H-pyridine-1-carboxylate], 7.3 nM.
